Results from ChEMBL document CHEMBL4049411, “Rational Design, Synthesis, and Biological Evaluation of Heterocyclic Quinolones Targeting the Respiratory Chain of Mycobacterium tuberculosis” (J Med Chem, 2017).

Columns and labels:
[1] = Retention time of compound by HPLC anlaysis
Rattus norvegicus [2] = assay: Cmax in Wistar rat assessed as 2-(4-(3,3-Difluoropyrrolidin-1-yl)phenyl)-5,7-difluoro-3-methylquinolin-4(1H)-one at 50 mg/kg administered via oral gavage after 24 hrs by LC-MS/MS analysis; format: ADME, organism-based; design: dose 50 mg/kg, route oral; conditions: in vivo
[3] = Cmax in Wistar rat at 10 mg/kg administered via oral gavage after 24 hrs by LC-MS/MS analysis; format: ADME, organism-based; design: dose 10 mg/kg, route oral; conditions: in vivo
Rattus norvegicus [4] = assay: Oral bioavailability in Wistar rat assessed as 2-(4-(3,3-Difluoropyrrolidin-1-yl)phenyl)-5,7-difluoro-3-methylquinolin-4(1H)-one at 50 mg/kg administered via gavage after 24 hrs by LC-MS/MS analysis; format: ADME, organism-based; conditions: in vivo
Rattus norvegicus [5] = assay: Half life in Wistar rat assessed as 2-(4-(3,3-Difluoropyrrolidin-1-yl)phenyl)-5,7-difluoro-3-methylquinolin-4(1H)-one at 50 mg/kg administered via oral gavage after 24 hrs by LC-MS/MS analysis; format: ADME, organism-based; conditions: in vivo
[6] = Cmax in Wistar rat at 50 mg/kg administered via oral gavage after 24 hrs by LC-MS/MS analysis; format: ADME, organism-based; design: dose 50 mg/kg, route oral; conditions: in vivo
Rattus norvegicus [7] = assay: Half life in Wistar rat assessed as 2-(4-(3,3-Difluoropyrrolidin-1-yl)phenyl)-5,7-difluoro-3-methylquinolin-4(1H)-one at 10 mg/kg administered via oral gavage after 24 hrs by LC-MS/MS analysis; format: ADME, organism-based; conditions: in vivo
Rattus norvegicus [8] = assay: Volume of distribution in steady state in Wistar rat assessed as 2-(4-(3,3-Difluoropyrrolidin-1-yl)phenyl)-5,7-difluoro-3-methylquinolin-4(1H)-one at 0.5 mg/kg, iv after 24 hrs by LC-MS/MS analysis; format: ADME, organism-based; conditions: in vivo
Rattus norvegicus [9] = assay: Cmax in Wistar rat assessed as 2-(4-(3,3-Difluoropyrrolidin-1-yl)phenyl)-5,7-difluoro-3-methylquinolin-4(1H)-one at 10 mg/kg administered via oral gavage after 24 hrs by LC-MS/MS analysis; format: ADME, organism-based; design: dose 10 mg/kg, route oral; conditions: in vivo
Rattus norvegicus [10] = assay: AUC in Wistar rat assessed as 2-(4-(3,3-Difluoropyrrolidin-1-yl)phenyl)-5,7-difluoro-3-methylquinolin-4(1H)-one at 10 mg/kg administered via oral gavage after 24 hrs by LC-MS/MS analysis; format: ADME, organism-based; design: dose 10 mg/kg, time < 24 hr, route oral; conditions: in vivo
Rattus norvegicus [11] = assay: Oral bioavailability in Wistar rat assessed as 2-(4-(3,3-Difluoropyrrolidin-1-yl)phenyl)-5,7-difluoro-3-methylquinolin-4(1H)-one at 10 mg/kg administered via gavage after 24 hrs by LC-MS/MS analysis; format: ADME, organism-based; conditions: in vivo
Rattus norvegicus [12] = assay: AUC in Wistar rat assessed as 2-(4-(3,3-Difluoropyrrolidin-1-yl)phenyl)-5,7-difluoro-3-methylquinolin-4(1H)-one at 50 mg/kg administered via oral gavage after 24 hrs by LC-MS/MS analysis; format: ADME, organism-based; design: dose 50 mg/kg, time < 24 hr, route oral; conditions: in vivo
[13] = AUC in Wistar rat at 50 mg/kg administered via oral gavage after 24 hrs by LC-MS/MS analysis; format: ADME, organism-based; design: time < 24 hr, dose 50 mg/kg, route oral; conditions: in vivo
Rattus norvegicus [14] = assay: Clearance in Wistar rat assessed as 2-(4-(3,3-Difluoropyrrolidin-1-yl)phenyl)-5,7-difluoro-3-methylquinolin-4(1H)-one at 0.5 mg/kg, iv after 24 hrs by LC-MS/MS analysis; format: ADME, organism-based; conditions: in vivo
Rattus norvegicus [15] = assay: AUC in Wistar rat assessed as 2-(4-(3,3-Difluoropyrrolidin-1-yl)phenyl)-5,7-difluoro-3-methylquinolin-4(1H)-one at 0.5 mg/kg, iv after 24 hrs by LC-MS/MS analysis; format: ADME, organism-based; design: time < 24 hr, dose 0.5 mg/kg, route intravenous; conditions: in vivo
[16] = Prodrug activation in Sprague-Dawley rat assessed as 2-(4-(3,3-difluoropyrrolidin-1-yl)phenyl)-5,7-difluoro-3-methylquinolin-4(1H)-one formation in urine at 50 mg/kg, po via gavage up to 9 hrs by HPLC analysis; format: organism-based; conditions: in vivo
[17] = Drug metabolism in Sprague-Dawley rat assessed as M2 metabolite formation in bile at 50 mg/kg, po via gavage up to 9 hrs by HPLC analysis; format: ADME, organism-based; conditions: in vivo
[18] = Drug metabolism in Sprague-Dawley rat assessed as M3 metabolite formation in bile at 50 mg/kg, po via gavage up to 9 hrs by HPLC analysis; format: ADME, organism-based; conditions: in vivo
[19] = Drug metabolism in Sprague-Dawley rat assessed as M1 metabolite formation in bile at 50 mg/kg, po via gavage up to 9 hrs by HPLC analysis; format: ADME, organism-based; conditions: in vivo
[20] = AUC in Wistar rat at 10 mg/kg administered via oral gavage after 24 hrs by LC-MS/MS analysis; format: ADME, organism-based; design: dose 10 mg/kg, time < 24 hr, route oral; conditions: in vivo
[21] = Drug metabolism in Sprague-Dawley rat assessed as M3 metabolite formation in urine at 50 mg/kg, po via gavage up to 9 hrs by HPLC analysis; format: ADME, organism-based; conditions: in vivo
[22] = Oral bioavailability in Wistar rat at 50 mg/kg administered via gavage after 24 hrs by LC-MS/MS analysis; format: ADME, organism-based; conditions: in vivo
[23] = Half life in Wistar rat at 10 mg/kg administered via oral gavage after 24 hrs by LC-MS/MS analysis; format: ADME, organism-based; conditions: in vivo
[24] = Prodrug activation in Sprague-Dawley rat assessed as 2-(4-(3,3-difluoropyrrolidin-1-yl)phenyl)-5,7-difluoro-3-methylquinolin-4(1H)-one formation in bile at 50 mg/kg, po via gavage up to 9 hrs by HPLC analysis; format: organism-based; conditions: in vivo
[25] = Half life in Wistar rat at 50 mg/kg administered via oral gavage after 24 hrs by LC-MS/MS analysis; format: ADME, organism-based; conditions: in vivo
[26] = Oral bioavailability in Wistar rat at 10 mg/kg administered via gavage after 24 hrs by LC-MS/MS analysis; format: ADME, organism-based; conditions: in vivo
[27] = Drug metabolism in Sprague-Dawley rat assessed as 2-(4-(3,3-difluoro-4-hydroxypyrrolidin-1-yl)phenyl)-5,7-difluoro-3-methylquinolin-4(1H)-one metabolite formation in bile at 50 mg/kg, po via gavage up to 9 hrs by HPLC analysis; format: ADME, organism-based; conditions: in vivo
[28] = Drug metabolism in Sprague-Dawley rat assessed as 2-(4-(3,3-difluoro-4-hydroxypyrrolidin-1-yl)phenyl)-5,7-difluoro-3-methylquinolin-4(1H)-one metabolite formation in urine at 50 mg/kg, po via gavage up to 9 hrs by HPLC analysis; format: ADME, organism-based; conditions: in vivo
Rattus norvegicus [29] = assay: Half life in Wistar rat assessed as 2-(4-(3,3-Difluoropyrrolidin-1-yl)phenyl)-5,7-difluoro-3-methylquinolin-4(1H)-one at 0.5 mg/kg, iv after 24 hrs by LC-MS/MS analysis; format: ADME, organism-based; conditions: in vivo

CC(=O)Oc1c(C)c(-c2ccc(N3CCC(F)(F)C3)cc2)nc2cc(F)cc(F)c12
Retention time [1]: 14.3 min | Cmax (Rattus norvegicus [2]): 1400 ng/mL | Cmax [3]: 1700 ng/mL | F (Rattus norvegicus [4]): 17.1% | t1/2 (Rattus norvegicus [5]): 4.2 h | Cmax [6]: 4000 ng/mL | t1/2 (Rattus norvegicus [7]): 3.8 h | Vdss (Rattus norvegicus [8]): 0.291 L/kg | Cmax (Rattus norvegicus [9]): 610 ng/mL | AUC (Rattus norvegicus [10]): 5400 ng·h/mL | F (Rattus norvegicus [11]): 28% | AUC (Rattus norvegicus [12]): 16500 ng·h/mL | AUC at 24 h [13]: 29600 ng·h/mL | CL (Rattus norvegicus [14]): 8.73 mL/min/kg | AUC (Rattus norvegicus [15]): 964 ng·h/mL | Drug metabolism [16]: Metabolite_Detected | Drug metabolism [17]: Metabolite_Detected | Drug metabolism [18]: Metabolite_Detected | Drug metabolism [19]: Metabolite_Detected | AUC at 24 h [20]: 12300 ng·h/mL | Drug metabolism [21]: Metabolite_Detected | bioavailability [22]: 30.7% | half-life [23]: 3.9 h | Drug metabolism [24]: Metabolite_Detected | half-life [25]: 2.3 h | bioavailability [26]: 63.8% | Drug metabolism [27]: Metabolite_Detected | Drug metabolism [28]: Metabolite_Detected | t1/2 (Rattus norvegicus [29]): 1.48 h
